The results in this text go back to paper PMC5929447 (Oncotarget, 2018).

One data set has as its system Toledo xenograft. The data set can be described thus: Toledo xenograft efficacy. Particulars: 200 mg/kg oral five times a week for 3 weeks, day 21. It is filed as in vivo, mice. The method, then:
Experiments were performed in SCID/beige female mice from Charles River Laboratories, Massachusetts, USA. Animals, approximately 7-8 weeks of age at the start of the treatment were allowed to acclimate in animal facility with access to food and water ad libitum for 3 days prior to manipulation. Animals were handled in accordance with IACUC regulations and guidelines for experiments performed in the USA and with European and French regulation for the protection of vertebrate animals for experiments performed in France. Animal well-being and behavior, including grooming and ambulation were monitored at least once a day. General health of mice was monitored and mortality recorded daily. Any moribund animals were sacrificed.
RS4;11 Acute Lymphoblastic Leukemia cell lines was obtained from ATCC. Toledo (Diffuse Large B-Cell Lymphoma) human cell lines were obtained internally through Bioresources and the Novartis-Cancer Cell Line Encyclopedia. Cells were free of Mycoplasma and murine viral contamination in the IMPACT VIII PCR assay panel (IDEXX RADIL, IDEXX laboratories INC, Westbrook, ME, USA). Cells used for subcutaneous implantation were cultured in RPMI plus 10% FBS at 37° C in a humidified atmosphere containing 5% carbon dioxide). […] Cells were resuspended in a 1:1 mixture of cold DPBS (Dulbecco's Phosphate-Buffered Saline) and Matrigel™ (Becton-Dickinson #354234) at a concentration of 3 × 10^7 cells/ml for Toledo cells, and of 1 × 10^7 cells/ml for RS4;11 cells.
For each experiment, female SCID/beige mice were implanted subcutaneously (right axillary region) with 3 × 10^6 Toledo or RS4;11 (1 × 10^6 cells for efficacy studies and 1 × 10^7 cells for pharmacodynamics studies) suspended in 1:1 mixture of cold DPBS and Matrigel™ in a total volume of 100 μl. Body weights were recorded and tumors were measured with digital calipers twice to three times a week. Tumor volume was calculated using the formula: length × width^2/2. Percent changes in body weights was calculated as (BWcurrent - BWinitial)/(BWinitial) × 100. Data is presented as percent body weight change from the day of treatment initiation.
(§1) When tumors reached approximately 200 mm^3 for efficacy studies or 300 mm^3 for pharmacodynamic studies, mice were randomized. […] Mice were treated via oral gavage at 10 ml/kg with the doses and schedules described in the figure.
For efficacy studies, percent treatment/control (T/C) values were calculated using the following formula: %T/C = 100 × ΔT/ΔC if ΔT > 0. Regression = 100 × ΔT/Tinitial if ΔT < 0 where: T = mean tumor burden of the drug-treated group on the final day of the study; ΔT = mean tumor burden of the drug-treated group on the final day of the study – mean tumor burden of the drug-treated group on initial day of dosing; Tinitial = mean tumor burden of the drug-treated group on initial day of dosing; C = mean tumor burden of the control group on the final day of the study; and ΔC = mean tumor burden of the control group on the final day of the study – mean tumor burden of the control group on initial day of dosing. If the tumor volume was less than 14 mm^3 for more than 3 consecutive measurements, animals were considered in complete regression (CR).

For a further data set, the target named is MCL-1 (Homo sapiens, UniProt Q07820). As to the kind of experiment: Fluorescence polarization (FP) with Fluorescein-PUMA, MCL-1. It is filed as binding. For orientation: Polarisation of emitted light reports the rotation of a fluorescent probe.
MCL-1, sequence (Q07820 whole entry): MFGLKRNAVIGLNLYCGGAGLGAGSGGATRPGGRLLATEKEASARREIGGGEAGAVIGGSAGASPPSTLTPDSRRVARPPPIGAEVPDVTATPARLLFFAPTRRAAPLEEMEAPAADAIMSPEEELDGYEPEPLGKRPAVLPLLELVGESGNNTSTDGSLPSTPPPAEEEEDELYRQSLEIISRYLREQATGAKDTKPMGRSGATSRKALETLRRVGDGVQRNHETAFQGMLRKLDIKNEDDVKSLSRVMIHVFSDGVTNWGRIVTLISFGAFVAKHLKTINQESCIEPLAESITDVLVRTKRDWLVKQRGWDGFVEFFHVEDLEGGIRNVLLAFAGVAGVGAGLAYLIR
Another data set addresses BCL-2 (Homo sapiens, UniProt P10415). The data set can be described thus: Isothermal titration calorimetry (ITC), BCL-2. Particulars: binding to BCL-2. The method, then:
The protein was dialyzed prior to use in 2 L of 25 mM HEPES, 150 mM NaCl, 5% glycerol (v/v), 0.5% MTG (v/v) at pH 7.4 for 3 hours at room temperature. The protein was dialyzed using a 3.5 K MWCO Slide-A-Lyzer™ cassette. The protein solution was recovered, spin-filtered through a […] frit. The filtered protein was quantified by UV absorbance at 280 nm using an extinction coefficient of 36440 M^-1cm^-1. 500 ml of dialysis buffer was retained (remainder used to rinse out SCHOT bottle) and degassed for a minimum of 30 mins under vacuum with constant stirring. […] The solutions were carefully matched to ensure same solvent and buffer conditions were present in both syringe and cell (this is to minimize heat of dilution effects). The final solution was the dialysis buffer plus 1% DMSO and 0.05% P20. The experiment was performed over 13 injections with stirring at 1000 rpm, gain setting low and at 25° C. Pure water was used in the reference cell. The first injection was 0.5 μl with a duration of 1 second with a gap of 150 seconds until the further 12 injections of 3.05 μl with a duration 6.1 seconds and a 240 second interval between injections. Data was analyzed using the vendor supplied software, PEAQ-ITC Analysis Software. The data model used was the single site model. The data shown is the average of 2 or 3 independent experiments.

The next data set deals with T1, BFL-1 (Homo sapiens, UniProt Q16548).
T1 sequence (Q16548 1-175): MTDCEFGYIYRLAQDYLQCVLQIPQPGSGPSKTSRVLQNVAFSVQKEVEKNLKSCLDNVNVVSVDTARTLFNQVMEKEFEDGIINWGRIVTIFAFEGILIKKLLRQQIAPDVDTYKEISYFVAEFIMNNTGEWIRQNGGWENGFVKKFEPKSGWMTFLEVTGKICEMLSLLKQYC
The data set can be described thus: Fluorescence polarization (FP) with Fluorescein-PUMA, BFL-1. Particulars: at 3E-05 M.

The test system of data set [1] is caspase-3 activity in RS4;11 tumor xenografts. The data set can be described thus: Caspase-3 activity in RS4;11 tumor xenografts. It is filed as in vivo. Particulars: 100 mg/kg single oral gavage, 16 h post dosing, SCID mice. The protocol: Body weights were recorded and tumors were measured with digital calipers twice to three times a week. Tumor volume was calculated using the formula: length × width^2/2. Percent changes in body weights was calculated as (BWcurrent - BWinitial)/(BWinitial) × 100. Data is presented as percent body weight change from the day of treatment initiation. When tumors reached approximately 200 mm^3 for efficacy studies or 300 mm^3 for pharmacodynamic studies, mice were randomized. […] Mice were treated via oral gavage at 10 ml/kg with the doses and schedules described in the figure. For pharmacodynamic studies, blood and tumors were removed 16 h post dosing and immediately snap-frozen. Total proteins were extracted from the tumors and caspase-3 activity was assessed in triplicate using CaspACE® Assay System (Promega). Platelet cell counts were determined 16 hours post dosing using Coulter AcT diff (Beckman).

The next data set concerns H146 cell line. The data set can be described thus: CellTiter-Glo cell viability, H146. Particulars: Homo sapiens, NCI-H146; 72 h of treatment. It is filed as cell-based. The protocol:
(§2) Cells were seeded into 96-well plates and treated at 8 points with 1:2 serial dilution of compounds. Cell viability was assessed and assayed for viability using CellTiter-Glo reagent (Promega) following the manufacturer's instructions. Plates were read using Tecan luminescence plate reader. Results were normalized to the viability of cells without compounds (control wells). The IC50 values were calculated using nonlinear regression algorithms in XCell software.
On the technique in general: In ATP-based viability assays light output follows the ATP content of the culture.

In the next data set the test system is platelets. As to the kind of experiment: Platelet counts in RS4;11-bearing mice. It is filed as in vivo. Particulars: 100 mg/kg single oral dose, 16 h post dosing. The protocol: as §1
For pharmacodynamic studies, blood and tumors were removed 16 h post dosing and immediately snap-frozen. Total proteins were extracted from the tumors and caspase-3 activity was assessed in triplicate using CaspACE® Assay System (Promega). Platelet cell counts were determined 16 hours post dosing using Coulter AcT diff (Beckman).

The next data set concerns the target BCL-2/BAX complex (Homo sapiens, UniProt P10415). As to the kind of experiment: Co-immunoprecipitation in BCL-2-overexpressing HeLa cells. It counts as cell-based. Particulars: 2 h.
Another data set concerns RS4;11 cell line. The data set can be described thus: CellTiter-Glo cell viability, RS4;11. It counts as cell-based. Particulars: Homo sapiens, 72 h of treatment. The protocol: as §2
A further data set addresses BCL-XL/BAX complex (Homo sapiens, UniProt Q07817). The data set can be described thus: Co-immunoprecipitation in BCL-XL-overexpressing HeLa cells. Particulars: 2 h.
The subject of data set [2] is BCL-XL-dependent FL5.12 cells. The data set can be described thus: Apoptosis (annexin V/PI) in FL5.12 cells expressing BCL-XL upon IL-3 withdrawal. Particulars: 24 h upon IL-3 withdrawal.
The test system of data set [3] is isolated platelets from healthy volunteers. The data set can be described thus: Apoptosis (annexin V) in isolated platelets. It counts as cell-based. Particulars: Homo sapiens, Platelet; 4 healthy donors, 3 h; read-out: EC50 apoptosis (PS+) in isolated platelets. The protocol:
Peripheral blood samples from CLL patients were obtained with informed patient consent and local ethical committee approval (UHL-09723). […] Interphase fluorescence in situ hybridization (FISH) was performed for detection of 17p13 deletion. Mantle cell lymphoma (MCL) primary cells were obtained after informed consent from MCL patients treated at the department of clinical hematology from the University Hospital of Nantes, France. Peripheral MCL cells from blood or pleural effusion, were purified after Ficoll-Hypaque separation with immuno-magnetic anti-CD19 beads (Miltenyi, Paris, France). Primary cells were cultured in RPMI-1640 supplemented with 10% FCS and 2 mM glutamine. Human platelets were isolated from citrate blood donated by healthy volunteers. Washed platelets were cultured in Hepes-buffered saline (HBS, 10 mM Hepes, 150 mM NaCl, 5 mM KCl, 1 mM MgSO4, pH 7.4).
EC50 values were calculated using GraphPadPrism (non-linear fit, sigmoidal dose response, variable slope). […] Cell death was assessed in the CD19+ primary MCL cells by annexinV-FITC staining combined with an analysis of altered cellular morphology (lower FCS). Fluorescence was analyzed on FACSCalibur.

For data set [4], the system named is BCL-2-dependent FL5.12 cells. The data set can be described thus: Apoptosis (annexin V/PI) in FL5.12 cells expressing BCL-2 upon IL-3 withdrawal. It is filed as cell-based, murine. Particulars: 24 h upon IL-3 withdrawal.

The structures appear in SMILES notation. Several values for one entry are separate records, joined by “and”; a condition that tells them apart may be missing. Identical values can stand only once.

BCL-2, sequence (P10415 whole entry): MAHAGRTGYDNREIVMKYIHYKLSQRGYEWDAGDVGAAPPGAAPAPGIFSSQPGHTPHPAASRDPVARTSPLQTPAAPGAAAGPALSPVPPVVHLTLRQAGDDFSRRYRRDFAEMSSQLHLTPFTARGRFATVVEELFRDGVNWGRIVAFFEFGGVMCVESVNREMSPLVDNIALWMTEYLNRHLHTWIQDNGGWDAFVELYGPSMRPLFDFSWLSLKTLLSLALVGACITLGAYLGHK
BCL-2/BAX complex, sequence (P10415 whole entry, one chain of several): as the sequence (P10415 whole entry) above
BCL-XL/BAX complex, sequence (Q07817 whole entry, one chain of several): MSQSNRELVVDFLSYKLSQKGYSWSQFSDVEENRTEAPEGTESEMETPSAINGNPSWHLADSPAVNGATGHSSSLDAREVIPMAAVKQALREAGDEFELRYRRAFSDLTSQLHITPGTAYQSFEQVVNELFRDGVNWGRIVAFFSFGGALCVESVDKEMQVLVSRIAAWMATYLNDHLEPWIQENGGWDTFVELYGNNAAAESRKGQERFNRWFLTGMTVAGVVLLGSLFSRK
Protocol for BCL-XL/BAX complex: Effecten reagent (Qiagen), with 3xFlag-tagged BCL-XL
24 h later, transfected Hela and RS4;11
were put under neomycin selection (800 µg/ml, Invitrogen) were then subjected to immunoprecipitation with anti-
Protocol for BFL-1: Final concentrations of MCL-1, BFL-1, BCL-2 and BCL-XL proteins were 10, 10, 10 and 20 nM respectively. The assay plates were incubated for 2 hours at room temperature and the FP was measured on a Synergy 2 reader (Ex. 528 nm, Em. 640 nm, Cut-off 510 nm). The binding of increasing doses of compound was expressed as a percentage reduction in mP compared to the window established between ‘DMSO only’ and ‘total inhibition’ control (30 μM PUMA). […] The KI was subsequently calculated as previously described [42].

For `CC1(C)CCC(CN2CCN(c3ccc(C(=O)NS(=O)(=O)c4ccc(NCC5CCOCC5)c([N+](=O)[O-])c4)c(Oc4cnc5[nH]ccc5c4)c3)CC2)=C(c2ccc(Cl)cc2)C1` [ABT-199, reference compound], the “% T/C” value in the data set on Toledo xenograft was 6 % T/C. The “Mean TV change” value with Toledo xenograft (mean ± s.e.m.) was 104.44 ± 70.31 mm3. Besides, the “FP_MCL-1, % of inhibition at the maximal tested concentration” value at MCL-1 (at 30E-06 M) was 14.9% and 11.8%. Also, on BCL-2, the “N (sites), stoichiometry” value is 1.1 sites and the “∆H (enthalpy delta)” value is given as “–12.1 kcal/mol”. For the same compound, the “FP_BFL-1, % of inhibition at the maximal tested concentration” value at BFL-1 stood at 6.4%@3E-05.
With `CC1(C)CCC(c2ccc(Cl)cc2)=C(CN2CCN(c3ccc(C(=O)NS(=O)(=O)c4ccc(N[C@H](CCN5CCOCC5)CSc5ccccc5)c(S(=O)(=O)C(F)(F)F)c4)cc3)CC2)C1` [ABT-263, reference compound], the “caspase-3 activity in tumor, times higher than in vehicle-treated animals” value in data set [1] is given as “about 20 times”. Further, in the data set with H146 cell line, the IC50 (commonly the concentration at which inhibition is half-maximal) worked out at 49.7 nM. Also, the “platelet counts in vivo” value in the data set on platelets is “strong decrease of platelet counts”. The “effect on BCL-2/BAX complex in BCL-2-overexpressing HeLa cells” value at BCL-2/BAX complex is “disrupt both BCL-2/BAX and BCL-XL/BAX complexes”. The “FP_MCL-1, % of inhibition at the maximal tested concentration” value on MCL-1 (at 10E-06 M) turned out to be 9.4%@10E-06. For the same compound, the IC50 in the data set with RS4;11 cell line amounted to 41.5 nM. In addition, the “effect on BCL-XL/BAX complex in BCL-XL-overexpressing HeLa cells” value on BCL-XL/BAX complex was “disrupt both BCL-2/BAX and BCL-XL/BAX complexes”. Also, at BCL-2, the “N (sites), stoichiometry” value is reported as 0.8 sites and the “∆H (enthalpy delta)” value is on record as “–13.1 kcal/mol”.
For `CN(C)CC[C@H](CSc1ccccc1)Nc1ccc(S(=O)(=O)NC(=O)c2ccc(N3CCN(Cc4ccccc4-c4ccc(Cl)cc4)CC3)cc2)cc1[N+](=O)[O-]` [ABT-737, reference compound], the “apoptosis induction (PS+ cells) in BCL-XL-dependent FL5.12 cells” value in data set [2] is “efficiently induced apoptosis”. The 50% effective concentration (EC50) (commonly the concentration needed to bring the measured effect to its halfway point) in data set [3] was determined as 30 nM. The “apoptosis induction (PS+ cells) in BCL-2-dependent FL5.12 cells” value in data set [4] is listed as “efficiently induced apoptosis”.
